Assay results from patent US12129312B2, “Peptide compound, application thereof and composition containing same” (priority 2017, dated 2024).
Square brackets hold non-standard residues; d marks the D form. Peptide text beside a SMILES is read from it. * marks the point of attachment. Hydrocinnamoyl = O=C(CCc1ccccc1)*; Tic = O=C(O)[C@@H]1Cc2ccccc2CN1; NMeL = CN[C@@H](CC(C)C)C(=O)O

Key:
[1] = Plasma stability, mouse plasma; type: in vitro ADME; settings: 37° C., 0-4 hours, LC-MS/MS, "Very long" = no significant degradation found in the test (4 hours)
Experimental: (§1) 1. Preparation of 50 mM Phosphate Buffer (50 mM Sodium Phosphate and 70 mM NaCl):
(§2) 5.750 g of Na2HPO4, 1.141 g of NaH2PO4 and 4.095 g of NaCl (Shanghai Titan) were weighed and dissolved in 1000 mL of ultrapure water and the pH was adjusted to 7.4. The prepared phosphate buffer was stored in the refrigerator at 4° C., valid for one week.
(§3) 2. Preparation of Compound Stock Solution:
(§4) 1) 5 mg/mL test compound: 5 mg of compound was weighed and dissolved in 1 mL of DMSO.
(§5) 2) 20 mM control: 2.728 mg of nococaine was dissolved in 0.5 mL of DMSO. 3.878 mg of fenfluramide was dissolved in 0.5 mL of DMSO (Amresco).
(§6) 3. Preparation of Experimental Plasma:
(§7) The frozen plasma (human: Shanghai ChemPartner, Rat, Mouse: Shanghai Xipuer-Beikai, Dog, Monkey: Suzhou Xishan Zhongke) was taken out from the −80° C. refrigerator, immediately placed in a 37° C. water bath, and thawn with gentle shaking. The thawed plasma was poured into a centrifuge tube, and centrifuged at 3000 rpm for 8 minutes. The supernatant was collected for the experiment. The pH of the plasma was measured with a pH meter (METTLER TOLEDO), and only the plasma with a pH between 7.4 and 8 was used for the experiment. The plasma was placed on an ice bath for later use.
(§8) 4. Preparation of the Dosing Solution:
(§9) 1) 125 μg/mL test compound solution: 5 μL of 5 mg/mL test compound (see step 2) was added to 195 μL DMSO; 500 μM control solution: 20 mM control stock solution (see step 2) was added to 195 μL DMSO.
(§10) 2) 0.5% BSA phosphate buffer solution: 0.05 g of BSA was added to 10 mL of phosphate buffer (see step 1).
(§11) 3) 5 μg/mL test compound dosing solution: 40 μL of 125 μg/mL test compound solution was added to 960 μL of 0.5% BSA phosphate buffer solution, shaken and mixed evenly, and the dosing solution was placed in a 37° C. water bath and preheated for 5 minutes.
(§12) 20 μM control dosing solution: 40 μL of 500 μM control solution was added to 960 μL of 0.5% BSA phosphate buffer solution, shaken and mixed evenly, and the dosing solution was placed in a 37° C. water bath and preheated for 5 minutes.
(§13) 5. 10 μL of 5 μg/mL test compound and 20 μM control solution were added to the wells of the 96-well plate set at different time points (0 minute, 1 hour, 2 hours and 4 hours). The number of duplicate samples was 3.
(§14) 6. 500 μL of ACN (IS) containing 5% FA was added to the wells set at 0 minute. 90 μL of plasma was then added thereto, mixed evenly, sealed with the film and stored at 4° C. (the number of duplicates was 3).
(§15) 7. 90 μL of plasma was added to the wells set at 1 hour, 2 hours and 4 hours (the number of replicates was 3), followed by timing (the final concentration of the test compound was 500 ng/mL, and that of the control was 2 μM).
(§16) 9. All samples (0 minutes, 1 hour, 2 hours, and 4 hours) at different time points on the 96-well plate were placed on a shaker (IKA, MTS 2/4) and shaken at 600 rpm for 60 minutes. The samples were then centrifuged for 15 minutes on a centrifuge machine (Thermo Multifuge×3R) at 5594×g.
(§17) 10. 150 μL of the supernatant was taken out from the centrifuged sample and sent to LC-MS/MS for analysis (conventional peptide LC-MS/MS analysis).

[2] = Plasma stability, human plasma; type: in vitro ADME; settings: 37° C., time points 0 minute, 1, 2 and 4 hours, LC-MS/MS, read-out: Human plasma (T1/2 (h)) (converted)
Experimental: as §1, §2, §3, §4, §5, §6, §7, §8, §9, §10, §11, §12, §13, §14, §15, §16, §17

half-life at 500 ng/mL ([1]; read-out: Mouse plasma (T1/2 (h)) (converted))	half-life at 500 ng/mL [2]	Mouse plasma (T1/2 (h)) ([1]; 500 ng/mL)	SMILES
35.4 h	12.8 h		CC(C)C[C@H](NC(=O)[C@H](Cc1ccccc1)NC(=O)[C@H](N)Cc1ccc(O)cc1)C(=O)N1CCC[C@H]1C(=O)N[C@H](CO)C(=O)N[C@@H](CCC(N)=O)C(=O)N[C@@H](Cc1ccccc1)C(=O)N[C@H](C)C(=O)N1Cc2ccccc2C[C@H]1C(=O)N[C@@H](CO)C(=O)O [YW-3, (D-Tyr)-Phe-Leu-Pro-(D-Ser)-Gln-Phe-(D-Ala)-Tic-Ser, reference compound] (H-[dY]FLP[dS]QF[dA][Tic]S-OH)
	71 h	Very long	CC(C)C[C@@H](C(=O)N1CCC[C@H]1C(=O)N[C@H](CO)C(=O)N[C@@H](CCC(N)=O)C(=O)N[C@@H](Cc1ccccc1)C(=O)N[C@H](C)C(=O)N1Cc2ccccc2C[C@H]1C(=O)N[C@@H](CO)C(=O)O)N(C)C(=O)[C@H](Cc1ccccc1)NC(=O)[C@@H](Cc1ccc(O)cc1)NC(=O)CCc1ccccc1 [YW-111, 3-phenylpropanoyl-(D-Tyr)-Phe-(NMe-Leu)-Pro-(D-Ser)-Gln-Phe-(D-Ala)-Tic-Ser-OH] (Hydrocinnamoyl-[dY]F[NMeL]P[dS]QF[dA][Tic]S-OH)
